Measurements from US7517885B2, “Substituted [4-(4-phenyl-piperazin-1-yl)-cyclohexyl]-urea compounds” (Janssen Pharmaceutica N.V., priority 2005, dated 2009).

Assays:
α1a-AR = target: T1, α1a-AR (Homo sapiens, UniProt P35348); test: α1-Adrenergic Receptor Binding Assay (125I-HEAT radio-ligand), α1a subtype; details: membranes of COS-7 cells transfected with α1a subtype; 125I-HEAT 50 pM; rt 1 hr
T1 construct: expressed in transfected cells; host or cells: COS-7 cells (membranes)
T1 sequence (P35348 1-455 isoform P35348-4): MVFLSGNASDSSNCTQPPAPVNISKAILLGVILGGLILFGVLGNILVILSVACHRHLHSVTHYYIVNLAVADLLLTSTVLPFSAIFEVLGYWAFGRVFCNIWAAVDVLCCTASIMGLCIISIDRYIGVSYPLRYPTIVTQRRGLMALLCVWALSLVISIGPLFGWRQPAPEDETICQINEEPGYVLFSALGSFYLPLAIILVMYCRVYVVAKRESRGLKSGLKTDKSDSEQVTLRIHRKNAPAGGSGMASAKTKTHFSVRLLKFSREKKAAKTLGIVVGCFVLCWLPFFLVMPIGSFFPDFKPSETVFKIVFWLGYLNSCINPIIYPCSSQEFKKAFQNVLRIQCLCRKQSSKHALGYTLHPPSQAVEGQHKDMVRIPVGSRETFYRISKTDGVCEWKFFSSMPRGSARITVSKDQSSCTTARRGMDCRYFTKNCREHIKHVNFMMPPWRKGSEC
Experimental: (§1) α1-Adrenergic Receptor Binding Assay
(§2) Preparation of COS Cell Membranes
(§3) Membranes were prepared from COS-7 cells (African Green monkey kidney SV40-transformed cells) that had been transfected with one of the three α1-AR subtypes (Genbank accession number for the α1a subtype: AF013261; Genbank accession number for the α1b subtype: NM000679; Genbank accession number for the α1d subtype: NM000678) using the following method: COS cells from ten 100 mm tissue culture plates were scraped into a 5 mL volume of TE (a mixture of 50 mM Tris-HCl, 5 mM EDTA, pH 7.4). […] The disrupted cells were centrifuged at 1000×g min at 4° C. Supernatants were centrifuged at 34,500×g for 20 min at 4° C. The membrane pellets were suspended in a 2 mL volume of TNE (a mixture of 50 mM Tris-HCl, 5 mM EDTA and 150 mM NaCl at pH 7.4). An aliquot of the membrane suspension was stored at −70° C. until use. The protein concentration was determined using the BioRad “DC” protein assay kit following membrane solubilization with Triton X-100.
(§4) Radio-Ligand Binding Assay
(§5) Triplicate determinations of radio-ligand binding in the presence of increasing concentrations of testing compound were made. The reagents were added to 96-well polypropylene plate wells. […] The plate was incubated at rt for 1 hr. The contents of the wells were filtered through a glass filter (type C) (GF/C) membrane Unifilter plate (Packard Instruments) using the Packard Filtermate cell harvester. The filter plates were dried in a vacuum oven for 30 min at 40° C. 25 μL Microscint 20 liquid scintillation fluid (Packard Instruments) was added to each well. The radioactive content was analyzed in the TopCount microplate scintillation counter (Packard Instruments).

α1b-AR = target: T2, α1b-AR (Homo sapiens, UniProt P35368); test: α1-Adrenergic Receptor Binding Assay (125I-HEAT radio-ligand), α1b subtype; details: membranes of COS-7 cells transfected with α1b subtype; 125I-HEAT 50 pM; rt 1 hr
T2 construct: expressed in transfected cells; host or cells: COS-7 cells (membranes)
T2 sequence (P35368 1-520): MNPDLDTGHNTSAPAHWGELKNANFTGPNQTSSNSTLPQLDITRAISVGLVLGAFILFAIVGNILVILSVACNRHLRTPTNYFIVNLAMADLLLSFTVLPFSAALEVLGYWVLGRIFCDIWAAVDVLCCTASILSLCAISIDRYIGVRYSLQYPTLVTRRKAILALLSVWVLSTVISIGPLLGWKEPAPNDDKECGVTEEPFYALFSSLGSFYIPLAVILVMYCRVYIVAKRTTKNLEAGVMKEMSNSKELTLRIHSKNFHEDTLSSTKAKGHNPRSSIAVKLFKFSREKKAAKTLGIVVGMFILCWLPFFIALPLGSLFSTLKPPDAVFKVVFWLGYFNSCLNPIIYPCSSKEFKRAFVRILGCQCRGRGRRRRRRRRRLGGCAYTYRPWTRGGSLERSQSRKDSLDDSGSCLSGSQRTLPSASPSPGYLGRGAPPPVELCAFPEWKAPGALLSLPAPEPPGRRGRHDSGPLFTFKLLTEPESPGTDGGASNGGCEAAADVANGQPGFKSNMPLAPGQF
Experimental: as §1, §2, §3, §4, §5

α1d-AR = target: T3, α1d-AR (Homo sapiens, UniProt P25100); test: α1-Adrenergic Receptor Binding Assay (125I-HEAT radio-ligand), α1d subtype; details: membranes of COS-7 cells transfected with α1d subtype; 125I-HEAT 50 pM; rt 1 hr
T3 construct: expressed in transfected cells; host or cells: COS-7 cells (membranes)
T3 sequence (P25100 1-572): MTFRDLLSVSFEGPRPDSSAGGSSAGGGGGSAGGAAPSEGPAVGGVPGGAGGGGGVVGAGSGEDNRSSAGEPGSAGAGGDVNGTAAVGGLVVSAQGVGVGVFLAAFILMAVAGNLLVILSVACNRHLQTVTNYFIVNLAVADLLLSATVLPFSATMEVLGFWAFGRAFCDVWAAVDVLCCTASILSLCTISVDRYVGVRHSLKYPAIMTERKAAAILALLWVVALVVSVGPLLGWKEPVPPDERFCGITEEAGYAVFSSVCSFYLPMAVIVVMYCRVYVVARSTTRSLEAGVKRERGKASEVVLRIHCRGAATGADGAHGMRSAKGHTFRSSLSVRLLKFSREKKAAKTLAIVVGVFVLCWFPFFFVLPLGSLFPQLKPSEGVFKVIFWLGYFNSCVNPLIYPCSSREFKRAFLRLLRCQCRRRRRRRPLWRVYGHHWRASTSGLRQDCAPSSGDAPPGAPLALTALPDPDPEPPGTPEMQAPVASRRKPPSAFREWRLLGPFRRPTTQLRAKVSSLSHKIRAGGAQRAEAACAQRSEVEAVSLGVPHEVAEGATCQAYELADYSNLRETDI
Experimental: as §1, §2, §3, §4, §5

| Ki (α1a-AR) [µM] | Ki (α1b-AR) [µM] | Ki (α1d-AR) [µM] | Structure (SMILES) |
| --- | --- | --- | --- |
| 0.038 | 0.43 | 0.0084 | CC(C)Oc1ccccc1N1CCN(C2CCC(NC(=O)Nc3ccccc3Oc3ccccc3)CC2)CC1 (mixture of isomers) [Cpd 17, 1-{4-[4-(2-isopropoxy-phenyl)-piperazin-1-yl]-cyclohexyl}-3-(2-phenoxy-phenyl)-urea] |
| 0.101 | 0.604 | 0.0134 | CC(C)Oc1ccccc1N1CCN(C2CCC(NC(=O)Nc3ccccc3OC(F)(F)F)CC2)CC1 (mixture of isomers) [Cpd 30, 1-{4-[4-(2-isopropoxy-phenyl)-piperazin-1-yl]-cyclohexyl}-3-(2-trifluoromethoxy-phenyl)-urea] |
| 0.155 | 0.223 | – | COc1ccccc1NC(=O)N[C@H]1CC[C@@H](N2CCN(c3ccccc3OC(C)C)CC2)CC1 [Cpd 1, 1-{c-4-[4-(2-isopropoxy-phenyl)-piperazin-1-yl]-cyclohexyl}-r-3-(2-methoxy-phenyl)-urea] |
| 0.038 | 0.107 | – | COc1ccccc1NC(=O)N[C@H]1CC[C@H](N2CCN(c3ccccc3OC(C)C)CC2)CC1 [Cpd 2, 1-{t-4-[4-(2-isopropoxy-phenyl)-piperazin-1-yl]-cyclohexyl}-r-3-(2-methoxy-phenyl)-urea] |
| 0.11 | – | 0.092 | COc1ccc(NC(=O)N[C@H]2CC[C@@H](N3CCN(c4ccccc4OC(C)C)CC3)CC2)c(OC)c1 [Cpd 3, 1-(2,4-dimethoxy-phenyl)-r-3-{c-4-[4-(2-isopropoxy-phenyl)-piperazin-1-yl]-cyclohexyl}-urea] |
| 0.074 | – | 0.02 | COc1ccc(NC(=O)N[C@H]2CC[C@H](N3CCN(c4ccccc4OC(C)C)CC3)CC2)c(OC)c1 [Cpd 4, 1-(2,4-dimethoxy-phenyl)-r-3-{t-4-[4-(2-isopropoxy-phenyl)-piperazin-1-yl]-cyclohexyl}-urea] |
| 0.082 | 0.706 | 0.062 | CC(C)Oc1ccccc1N1CCN([C@H]2CC[C@@H](NC(=O)NCc3cccc(F)c3)CC2)CC1 [Cpd 5, 1-(3-fluoro-benzyl)-r-3-{c-4-[4-(2-isopropoxy-phenyl)-piperazin-1-yl]-cyclohexyl}-urea] |
| 0.0108 | 0.0696 | 0.0153 | CC(C)Oc1ccccc1N1CCN([C@H]2CC[C@H](NC(=O)NCc3cccc(F)c3)CC2)CC1 [Cpd 6, 1-(3-fluoro-benzyl)-r-3-{t-4-[4-(2-isopropoxy-phenyl)-piperazin-1-yl]-cyclohexyl}-urea] |
| 0.0506 | 0.963 | – | CC(C)Oc1ccccc1N1CCN([C@H]2CC[C@@H](NC(=O)Nc3ccc(F)c(F)c3)CC2)CC1 [Cpd 7, 1-(3,4-difluoro-phenyl)-r-3-{c-4-[4-(2-isopropoxy-phenyl)-piperazin-1-yl]-cyclohexyl}-urea] |
| 0.003 | 0.074 | – | CC(C)Oc1ccccc1N1CCN([C@H]2CC[C@H](NC(=O)Nc3ccc(F)c(F)c3)CC2)CC1 [Cpd 8, 1-(3,4-difluoro-phenyl)-r-3-{t-4-[4-(2-isopropoxy-phenyl)-piperazin-1-yl]-cyclohexyl}-urea] |
| 0.0475 | 0.373 | 0.046 | CC(C)Oc1ccccc1N1CCN([C@H]2CC[C@@H](NC(=O)Nc3ccccc3Cl)CC2)CC1 [Cpd 9, 1-(2-chloro-phenyl)-r-3-{c-4-[4-(2-isopropoxy-phenyl)-piperazin-1-yl]-cyclohexyl}-urea] |
| 0.0222 | – | – | CC(C)Oc1ccccc1N1CCN([C@H]2CC[C@@H](NC(=O)Nc3cccc(Cl)c3)CC2)CC1 [Cpd 11, 1-(3-chloro-phenyl)-r-3-{c-4-[4-(2-isopropoxy-phenyl)-piperazin-1-yl]-cyclohexyl}-urea] |
| 0.0051 | – | – | CC(C)Oc1ccccc1N1CCN([C@H]2CC[C@H](NC(=O)Nc3cccc(Cl)c3)CC2)CC1 [Cpd 12, 1-(3-chloro-phenyl)-r-3-{t-4-[4-(2-isopropoxy-phenyl)-piperazin-1-yl]-cyclohexyl}-urea] |
| 0.0334 | – | – | CC(C)Oc1ccccc1N1CCN([C@H]2CC[C@@H](NC(=O)Nc3c(Cl)cccc3Cl)CC2)CC1 [Cpd 13, 1-(2,6-dichloro-phenyl)-r-3-{c-4-[4-(2-isopropoxy-phenyl)-piperazin-1-yl]-cyclohexyl}-urea] |
| 0.0062 | – | – | CC(C)Oc1ccccc1N1CCN([C@H]2CC[C@H](NC(=O)Nc3c(Cl)cccc3Cl)CC2)CC1 [Cpd 14, 1-(2,6-dichloro-phenyl)-r-3-{t-4-[4-(2-isopropoxy-phenyl)-piperazin-1-yl]-cyclohexyl}-urea] |
| 0.101 | – | 0.064 | COc1ccc(Cl)cc1NC(=O)N[C@H]1CC[C@@H](N2CCN(c3ccccc3OC(C)C)CC2)CC1 [Cpd 18, 1-(5-chloro-2-methoxy-phenyl)-r-3-{c-4-[4-(2-isopropoxy-phenyl)-piperazin-1-yl]-cyclohexyl}-urea] |
| 0.034 | – | 0.0027 | COc1ccc(Cl)cc1NC(=O)N[C@H]1CC[C@H](N2CCN(c3ccccc3OC(C)C)CC2)CC1 [Cpd 19, 1-(5-chloro-2-methoxy-phenyl)-r-3-{t-4-[4-(2-isopropoxy-phenyl)-piperazin-1-yl]-cyclohexyl}-urea] |
| 0.014 | 0.475 | – | CC(C)Oc1ccccc1N1CCN([C@H]2CC[C@@H](NC(=O)Nc3ccc(F)cc3F)CC2)CC1 [Cpd 22, 1-(2,4-difluoro-phenyl)-r-3-{c-4-[4-(2-isopropoxy-phenyl)-piperazin-1-yl]-cyclohexyl}-urea] |
| 0.0031 | 0.076 | – | CC(C)Oc1ccccc1N1CCN([C@H]2CC[C@H](NC(=O)Nc3ccc(F)cc3F)CC2)CC1 [Cpd 23, 1-(2,4-difluoro-phenyl)-r-3-{t-4-[4-(2-isopropoxy-phenyl)-piperazin-1-yl]-cyclohexyl}-urea] |
| 0.0516 | 0.299 | – | CC(C)Oc1ccccc1N1CCN([C@H]2CC[C@@H](NC(=O)Nc3c(F)cccc3F)CC2)CC1 [Cpd 26, 1-(2,6-difluoro-phenyl)-r-3-{c-4-[4-(2-isopropoxy-phenyl)-piperazin-1-yl]-cyclohexyl}-urea] |
| 0.0053 | 0.0356 | – | CC(C)Oc1ccccc1N1CCN([C@H]2CC[C@H](NC(=O)Nc3c(F)cccc3F)CC2)CC1 [Cpd 27, 1-(2,6-difluoro-phenyl)-r-3-{t-4-[4-(2-isopropoxy-phenyl)-piperazin-1-yl]-cyclohexyl}-urea] |
